Test results: the kinase profiling compilation of Christmann-Franck et al. (2016)

Experiments:
Assay in all cases: KINOMEscan competition binding
Settings in all cases: compound 10.0 µM
[1] = target: CDKL5 (human) (UniProt O76039)
[2] = target: NEK6 (human) (UniProt Q9HC98)
[3] = target: PRKG1 (human) (UniProt Q13976)
[4] = target: CSNK1D (human) (UniProt P48730)
[5] = system: FGFR3 (human), P22607 [G697C]
[6] = target: PDGFRB (human) (UniProt P09619)
[7] = target: JAK3 JH1 catalytic (human) (UniProt P52333)
[8] = target: NLK (human) (UniProt Q9UBE8)
[9] = target: CHUK (human) (UniProt O15111)
[10] = target: ITK (human) (UniProt Q08881)
[11] = target: ACVR2B (human) (UniProt Q13705)
[12] = target: FGFR2 (human) (UniProt P21802)
[13] = target: MARK3 (human) (UniProt P27448)
[14] = target: ACVR1 (human) (UniProt Q04771)
[15] = target: MAP3K15 (human) (UniProt Q6ZN16)
[16] = target: PDPK1 (human) (UniProt O15530)
[17] = target: MAPK12 (human) (UniProt P53778)
[18] = target: STK35 (human) (UniProt Q8TDR2)
[19] = target: CAMK2A (human) (UniProt Q9UQM7)
[20] = target: ERBB3 (human) (UniProt P21860)
[21] = target: MAPK6 (human) (UniProt Q16659)
[22] = target: MYLK (human) (UniProt Q15746)
[23] = target: ROCK2 (human) (UniProt O75116)
[24] = target: CDKL3 (human) (UniProt Q8IVW4)
[25] = target: RPS6KA4 KD1 (human) (UniProt O75676)
[26] = target: PHKG2 (human) (UniProt P15735)
[27] = target: WEE1 (human) (UniProt P30291)
[28] = target: PRKCH (human) (UniProt P24723)
[29] = target: MERTK (human) (UniProt Q12866)
[30] = target: NIM1 (human) (UniProt Q8IY84)
[31] = target: SBK1 (human) (UniProt Q52WX2)
[32] = system: PIK3CA (human), P42336 [M1043I]
[33] = target: TEK (human) (UniProt Q02763)
[34] = target: SYK (human) (UniProt P43405)
[35] = target: MAPK1 (human) (UniProt P28482)
[36] = target: MAP3K3 (human) (UniProt Q99759)
[37] = target: MAP2K2 (human) (UniProt P36507)

Sequence of MAP3K3 (human) (Q99759 whole entry, looked up): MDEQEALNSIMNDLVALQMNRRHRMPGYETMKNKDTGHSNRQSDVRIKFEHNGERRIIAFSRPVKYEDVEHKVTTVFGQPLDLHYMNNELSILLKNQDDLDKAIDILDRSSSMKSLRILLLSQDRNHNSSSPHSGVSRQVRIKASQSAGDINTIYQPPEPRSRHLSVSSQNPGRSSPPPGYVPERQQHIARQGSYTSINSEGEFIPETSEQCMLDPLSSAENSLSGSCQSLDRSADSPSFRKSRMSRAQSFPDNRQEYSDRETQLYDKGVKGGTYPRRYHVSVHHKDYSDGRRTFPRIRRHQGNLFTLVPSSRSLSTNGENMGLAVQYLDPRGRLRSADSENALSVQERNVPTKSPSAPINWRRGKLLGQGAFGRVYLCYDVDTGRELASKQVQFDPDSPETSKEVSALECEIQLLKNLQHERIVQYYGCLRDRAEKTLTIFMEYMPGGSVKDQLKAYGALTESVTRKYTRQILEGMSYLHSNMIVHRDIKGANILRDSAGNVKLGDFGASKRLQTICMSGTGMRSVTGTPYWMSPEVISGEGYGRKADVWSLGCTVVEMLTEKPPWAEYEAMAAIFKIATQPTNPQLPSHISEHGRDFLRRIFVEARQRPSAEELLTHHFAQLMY
Sequence of PDPK1 (human) (O15530 whole entry, looked up): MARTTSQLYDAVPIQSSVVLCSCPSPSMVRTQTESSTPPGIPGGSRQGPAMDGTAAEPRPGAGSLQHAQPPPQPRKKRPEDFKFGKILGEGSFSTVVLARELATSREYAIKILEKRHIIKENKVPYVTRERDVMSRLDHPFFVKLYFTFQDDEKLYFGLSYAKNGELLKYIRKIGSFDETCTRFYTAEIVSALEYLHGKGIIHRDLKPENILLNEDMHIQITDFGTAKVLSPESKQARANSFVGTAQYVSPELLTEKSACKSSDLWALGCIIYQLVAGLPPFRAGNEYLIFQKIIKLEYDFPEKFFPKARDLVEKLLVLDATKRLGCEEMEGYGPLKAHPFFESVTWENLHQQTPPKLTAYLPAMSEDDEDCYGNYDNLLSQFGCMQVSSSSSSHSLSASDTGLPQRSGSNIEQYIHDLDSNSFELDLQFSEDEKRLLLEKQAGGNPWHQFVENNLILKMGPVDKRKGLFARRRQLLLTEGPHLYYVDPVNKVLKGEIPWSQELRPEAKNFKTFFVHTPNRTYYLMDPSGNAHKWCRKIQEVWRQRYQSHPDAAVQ
Sequence of MYLK (human) (Q15746 whole entry, looked up): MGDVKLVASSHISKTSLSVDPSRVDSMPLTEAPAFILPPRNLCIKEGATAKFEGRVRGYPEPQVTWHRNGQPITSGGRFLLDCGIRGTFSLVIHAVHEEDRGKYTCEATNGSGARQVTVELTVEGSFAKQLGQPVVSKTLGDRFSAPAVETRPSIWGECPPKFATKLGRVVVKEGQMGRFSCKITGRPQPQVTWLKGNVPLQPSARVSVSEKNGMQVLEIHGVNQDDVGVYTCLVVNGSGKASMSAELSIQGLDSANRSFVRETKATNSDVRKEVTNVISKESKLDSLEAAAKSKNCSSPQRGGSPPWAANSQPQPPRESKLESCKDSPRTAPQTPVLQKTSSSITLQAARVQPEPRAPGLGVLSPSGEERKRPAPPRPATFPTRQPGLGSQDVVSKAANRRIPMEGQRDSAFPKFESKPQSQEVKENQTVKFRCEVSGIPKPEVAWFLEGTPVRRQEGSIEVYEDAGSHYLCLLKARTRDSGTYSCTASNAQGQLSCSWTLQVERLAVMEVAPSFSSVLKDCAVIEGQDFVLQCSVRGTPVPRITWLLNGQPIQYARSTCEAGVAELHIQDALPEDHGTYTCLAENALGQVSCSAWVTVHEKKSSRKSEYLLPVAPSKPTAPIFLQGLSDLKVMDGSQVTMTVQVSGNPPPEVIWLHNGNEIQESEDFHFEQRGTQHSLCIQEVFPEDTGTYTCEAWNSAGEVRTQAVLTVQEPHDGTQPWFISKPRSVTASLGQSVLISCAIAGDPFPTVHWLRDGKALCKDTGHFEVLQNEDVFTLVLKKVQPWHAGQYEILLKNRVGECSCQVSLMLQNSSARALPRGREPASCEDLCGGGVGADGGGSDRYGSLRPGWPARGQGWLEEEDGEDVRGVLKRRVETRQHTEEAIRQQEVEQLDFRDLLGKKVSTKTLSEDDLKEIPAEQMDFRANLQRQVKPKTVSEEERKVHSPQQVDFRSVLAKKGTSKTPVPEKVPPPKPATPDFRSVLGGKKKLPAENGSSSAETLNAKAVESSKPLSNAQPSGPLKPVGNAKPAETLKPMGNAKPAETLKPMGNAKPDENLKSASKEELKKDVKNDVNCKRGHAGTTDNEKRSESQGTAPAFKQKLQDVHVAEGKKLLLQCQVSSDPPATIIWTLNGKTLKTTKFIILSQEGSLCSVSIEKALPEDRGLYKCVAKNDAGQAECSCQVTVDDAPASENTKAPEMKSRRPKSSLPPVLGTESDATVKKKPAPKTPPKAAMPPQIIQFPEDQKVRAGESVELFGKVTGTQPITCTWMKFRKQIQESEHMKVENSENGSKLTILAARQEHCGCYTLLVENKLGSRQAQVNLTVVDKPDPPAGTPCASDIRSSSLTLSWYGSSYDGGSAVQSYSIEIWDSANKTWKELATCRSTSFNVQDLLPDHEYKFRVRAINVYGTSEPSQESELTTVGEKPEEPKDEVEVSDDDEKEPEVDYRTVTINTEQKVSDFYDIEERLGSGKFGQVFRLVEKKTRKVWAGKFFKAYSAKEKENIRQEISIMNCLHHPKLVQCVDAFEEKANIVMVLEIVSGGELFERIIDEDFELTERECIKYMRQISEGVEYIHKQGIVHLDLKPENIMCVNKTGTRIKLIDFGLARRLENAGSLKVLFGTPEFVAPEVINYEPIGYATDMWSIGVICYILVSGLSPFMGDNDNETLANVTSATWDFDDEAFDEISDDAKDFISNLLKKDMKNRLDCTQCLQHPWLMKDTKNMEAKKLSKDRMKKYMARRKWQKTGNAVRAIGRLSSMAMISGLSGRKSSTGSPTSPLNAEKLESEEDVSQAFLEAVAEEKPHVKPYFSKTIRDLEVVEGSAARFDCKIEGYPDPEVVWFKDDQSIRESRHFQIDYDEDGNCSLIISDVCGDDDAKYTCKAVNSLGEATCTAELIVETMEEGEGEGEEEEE
Sequence of NLK (human) (Q9UBE8 whole entry, looked up): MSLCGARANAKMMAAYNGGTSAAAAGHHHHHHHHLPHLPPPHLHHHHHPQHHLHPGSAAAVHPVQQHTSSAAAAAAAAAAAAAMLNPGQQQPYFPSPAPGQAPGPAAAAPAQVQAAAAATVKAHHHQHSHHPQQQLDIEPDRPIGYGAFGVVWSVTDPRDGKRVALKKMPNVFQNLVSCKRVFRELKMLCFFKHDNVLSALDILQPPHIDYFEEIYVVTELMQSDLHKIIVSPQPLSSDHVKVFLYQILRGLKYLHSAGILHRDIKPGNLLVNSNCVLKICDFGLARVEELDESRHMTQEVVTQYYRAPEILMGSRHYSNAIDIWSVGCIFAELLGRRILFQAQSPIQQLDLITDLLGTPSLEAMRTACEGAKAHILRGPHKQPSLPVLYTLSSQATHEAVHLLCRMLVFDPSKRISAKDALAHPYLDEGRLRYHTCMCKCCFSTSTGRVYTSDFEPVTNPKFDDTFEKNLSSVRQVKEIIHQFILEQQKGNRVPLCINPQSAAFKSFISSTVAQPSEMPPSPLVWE
Sequence of ACVR1 (human) (Q04771 whole entry, looked up): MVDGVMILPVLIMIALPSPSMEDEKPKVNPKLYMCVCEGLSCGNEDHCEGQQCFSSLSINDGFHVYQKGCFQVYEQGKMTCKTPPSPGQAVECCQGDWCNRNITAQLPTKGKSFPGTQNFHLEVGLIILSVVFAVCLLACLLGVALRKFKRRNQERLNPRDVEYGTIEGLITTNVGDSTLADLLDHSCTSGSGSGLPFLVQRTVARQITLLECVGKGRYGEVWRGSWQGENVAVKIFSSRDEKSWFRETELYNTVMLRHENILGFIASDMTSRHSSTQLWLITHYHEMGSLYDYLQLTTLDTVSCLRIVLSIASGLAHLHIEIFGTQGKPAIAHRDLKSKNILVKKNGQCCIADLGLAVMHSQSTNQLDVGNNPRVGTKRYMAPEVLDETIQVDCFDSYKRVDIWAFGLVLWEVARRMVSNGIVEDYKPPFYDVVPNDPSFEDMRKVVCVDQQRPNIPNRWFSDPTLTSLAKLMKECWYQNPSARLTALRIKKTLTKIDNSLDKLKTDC
Sequence of MARK3 (human) (P27448 whole entry, looked up): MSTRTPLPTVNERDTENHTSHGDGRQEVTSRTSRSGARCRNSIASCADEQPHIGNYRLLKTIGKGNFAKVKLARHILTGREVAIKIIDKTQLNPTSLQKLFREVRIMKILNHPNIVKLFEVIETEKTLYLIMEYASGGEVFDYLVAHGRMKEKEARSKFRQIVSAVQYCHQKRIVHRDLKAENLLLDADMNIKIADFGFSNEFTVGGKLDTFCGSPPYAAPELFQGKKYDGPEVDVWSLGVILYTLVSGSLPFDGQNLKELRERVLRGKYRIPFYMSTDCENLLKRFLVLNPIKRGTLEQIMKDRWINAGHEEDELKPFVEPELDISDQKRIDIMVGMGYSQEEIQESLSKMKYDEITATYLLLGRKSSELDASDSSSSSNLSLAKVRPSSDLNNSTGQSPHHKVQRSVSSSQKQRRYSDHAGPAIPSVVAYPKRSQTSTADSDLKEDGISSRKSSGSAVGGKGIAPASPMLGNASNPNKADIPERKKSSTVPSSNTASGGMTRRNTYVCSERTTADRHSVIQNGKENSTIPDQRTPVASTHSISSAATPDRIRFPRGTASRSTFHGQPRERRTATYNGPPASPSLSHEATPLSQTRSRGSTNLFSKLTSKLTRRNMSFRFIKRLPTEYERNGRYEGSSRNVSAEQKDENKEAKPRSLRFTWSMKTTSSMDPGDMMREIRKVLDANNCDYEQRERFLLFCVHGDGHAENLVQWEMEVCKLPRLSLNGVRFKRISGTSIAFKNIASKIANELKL

Compound	kinase still bound, per cent of control [2]	kinase still bound, per cent of control [3]	kinase still bound, per cent of control [4]	kinase still bound, per cent of control [5]	kinase still bound, per cent of control [6]	kinase still bound, per cent of control [7]	kinase still bound, per cent of control [8]	kinase still bound, per cent of control [10]	kinase still bound, per cent of control [11]	kinase still bound, per cent of control [12]	kinase still bound, per cent of control [13]	kinase still bound, per cent of control [14]	kinase still bound, per cent of control [16]	kinase still bound, per cent of control [17]	kinase still bound, per cent of control [19]	kinase still bound, per cent of control [21]	kinase still bound, per cent of control [22]	kinase still bound, per cent of control [25]	kinase still bound, per cent of control [26]	kinase still bound, per cent of control [27]	further results
Cc1cn(-c2cc(C(=O)Nc3ccc(C)c(NC(=O)c4ccno4)c3)cc(C(F)(F)F)c2)cn1	100%	100%	100%	100%	0%	100%	100%	100%	100%	100%	100%	100%	100%	100%	100%	100%	100%	100%	100%	100%	kinase still bound, per cent of control [1]: 100%; kinase still bound, per cent of control [9]: 100%; kinase still bound, per cent of control [15]: 100%; kinase still bound, per cent of control [18]: 100%; kinase still bound, per cent of control [20]: 100%; kinase still bound, per cent of control [23]: 100%; kinase still bound, per cent of control [24]: 100%; kinase still bound, per cent of control [28]: 100%; kinase still bound, per cent of control [29]: 100%; kinase still bound, per cent of control [30]: 100%; kinase still bound, per cent of control [31]: 100%; kinase still bound, per cent of control [32]: 100%; kinase still bound, per cent of control [33]: 100%; kinase still bound, per cent of control [34]: 100%; kinase still bound, per cent of control [35]: 100%; kinase still bound, per cent of control [36]: 100%; kinase still bound, per cent of control [37]: 100%
COc1cc(C)c(Sc2cnc(NC(=O)c3ccc(CNC(C)C(C)C)cc3)s2)cc1C(=O)N1CCN(C(C)=O)CC1 (stereo not drawn)	34%	100%	100%	100%	100%	100%	100%	0.25%	100%	100%	100%	100%	100%	100%	100%	100%	100%	100%	11%	100%	kinase still bound, per cent of control [9]: 100%; kinase still bound, per cent of control [18]: 100%; kinase still bound, per cent of control [23]: 100%; kinase still bound, per cent of control [28]: 100%; kinase still bound, per cent of control [29]: 3.2%; kinase still bound, per cent of control [33]: 29%; kinase still bound, per cent of control [34]: 100%; kinase still bound, per cent of control [35]: 100%; kinase still bound, per cent of control [36]: 100%; kinase still bound, per cent of control [37]: 100%
COc1ccc(N(C(=O)Oc2cc(C(=O)Nc3cccc(C(F)(F)F)c3)ccc2C)c2ccnc(Nc3ccc(N4CCN(C)CC4)cc3)n2)c(OC)c1	100%	100%	100%	8.6%	0.45%	8.8%	30%	100%	100%	3.4%	100%	100%	100%	100%	100%	100%	100%	100%	100%	100%	kinase still bound, per cent of control [28]: 100%; kinase still bound, per cent of control [29]: 1.2%; kinase still bound, per cent of control [33]: 0.05%; kinase still bound, per cent of control [34]: 4%; kinase still bound, per cent of control [35]: 100%; kinase still bound, per cent of control [37]: 100%
COc1cc(N2CCC(C(N)=O)CC2)ccc1Nc1nc(N)c(Cl)c(Nc2ccccc2S(=O)(=O)C(C)C)n1	100%	100%	100%	100%	100%	100%	100%	100%	100%	100%	100%	100%	100%	100%	32%	100%	5%	100%	13%	100%	kinase still bound, per cent of control [9]: 100%; kinase still bound, per cent of control [18]: 100%; kinase still bound, per cent of control [23]: 100%; kinase still bound, per cent of control [28]: 100%; kinase still bound, per cent of control [29]: 32%; kinase still bound, per cent of control [33]: 100%; kinase still bound, per cent of control [34]: 100%; kinase still bound, per cent of control [35]: 26%; kinase still bound, per cent of control [36]: 100%; kinase still bound, per cent of control [37]: 100%
